Legend:
Doxorubicin = compound: COc1cccc2c1C(=O)c1c(O)c3c(c(O)c1C2=O)C[C@@](O)(C(=O)CO)C[C@@H]3O[C@H]1C[C@H](N)[C@H](O)[C@H](C)O1 [Doxorubicin]; settings: max 1 µM
In short: (§1)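 In 1536-well plates, cancer cell lines in 7.5 μl DMEM/F12 or RPMI with 10% FBS spent 24 hours at 37°C and 5% CO2 and were then dosed for 72 hours with final DMSO typically 0.2%. Viability was read by CellTiter-Glo 2.0 luminescence and scaled between blank-well and DMSO-well means. The single-agent IC50 was fitted from dose responses using a logistic curve in a non-linear mixed effects model, and that logistic curve had two parameters.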

AZD7648 = compound: Cc1cc2ncnn2cc1Nc1ncc2c(n1)n(C1CCOCC1)c(=O)n2C [AZD7648]; settings: max 10 µM
In short: as §1

Capivasertib = compound: C1CN(CCC1(C(=O)N[C@@H](CCO)C2=CC=C(C=C2)Cl)N)C3=NC=NC4=C3C=CN4 [Capivasertib]; settings: max 10 µM
In short: as §1

AZD5991 = compound: Cc1c2c(nn1C)CSCc1cc(n(C)n1)CSc1cc(c3ccccc3c1)OCCCc1c(C(=O)O)n(C)c3c-2c(Cl)ccc13 [AZD5991]; settings: max 1 µM
In short: as §1

AZD6738 = compound: C[C@@H]1COCCN1C2=NC(=NC(=C2)C3(CC3)[S@](=N)(=O)C)C4=C5C=CNC5=NC=C4 [AZD6738]; settings: max 10 µM
In short: as §1

Taselisib = compound: Cc1nc(-c2cn3c(n2)-c2ccc(-c4cnn(C(C)(C)C(N)=O)c4)cc2OCC3)n(C(C)C)n1 [Taselisib]; settings: max 10 µM
In short: as §1

Dasatinib = compound: CC1=C(C(=CC=C1)Cl)NC(=O)C2=CN=C(S2)NC3=CC(=NC(=N3)C)N4CCN(CC4)CCO [Dasatinib]; settings: max 2 µM
In short: as §1

Gefitinib = compound: COc1cc2ncnc(Nc3ccc(F)c(Cl)c3)c2cc1OCCCN1CCOCC1 [Gefitinib]; settings: max 10 µM
In short: as §1

AZD1775 = compound: C=CCn1c(=O)c2cnc(Nc3ccc(N4CCN(C)CC4)cc3)nc2n1-c1cccc(C(C)(C)O)n1 [AZD1775]; settings: max 3 µM
In short: as §1

Alisertib = compound: COc1cc(Nc2ncc3c(n2)-c2ccc(Cl)cc2C(c2c(F)cccc2OC)=NC3)ccc1C(=O)O [Alisertib]; settings: max 10 µM
In short: as §1

Prexasertib = compound: COc1cccc(OCCCN)c1-c1cc(Nc2cnc(C#N)cn2)n[nH]1 [Prexasertib]; settings: max 1 µM
In short: as §1

Palbociclib = compound: CC(=O)c1c(C)c2cnc(Nc3ccc(N4CCNCC4)cn3)nc2n(C2CCCC2)c1=O [Palbociclib]; settings: max 10 µM
In short: as §1

Lapatinib = compound: CS(=O)(=O)CCNCc1ccc(-c2ccc3ncnc(Nc4ccc(OCc5cccc(F)c5)c(Cl)c4)c3c2)o1 [Lapatinib]; settings: max 10 µM
In short: as §1

AZD0156 = compound: CN(C)CCCOc1ccc(-c2ccc3ncc4c(c3c2)n(C2CCOCC2)c(=O)n4C)cn1 [AZD0156]; settings: max 3 µM
In short: as §1

AZD4320 = compound: CN(CC[C@H](CSC1=CC=CC=C1)NC2=C(C=C(C=C2)S(=O)(=O)NC(=O)C3=CC=C(C=C3)N4CCC(CC4)[C@H](C5=CC=CC=C5C6=CC=C(C=C6)Cl)O)S(=O)(=O)C(F)(F)F)CCO [AZD4320]; settings: max 1 µM
In short: as §1

Selumetinib = compound: Cn1cnc2c(F)c(Nc3ccc(Br)cc3Cl)c(C(=O)NOCCO)cc21 [Selumetinib]; settings: max 10 µM
In short: as §1

Venetoclax = compound: CC1(C)CCC(CN2CCN(c3ccc(C(=O)NS(=O)(=O)c4ccc(NCC5CCOCC5)c([N+](=O)[O-])c4)c(Oc4cnc5[nH]ccc5c4)c3)CC2)=C(c2ccc(Cl)cc2)C1 [Venetoclax]; settings: max 1 µM
In short: as §1

Olaparib = compound: O=C(c1cc(Cc2n[nH]c(=O)c3ccccc23)ccc1F)N1CCN(C(=O)C2CC2)CC1 [Olaparib]; settings: max 10 µM
In short: as §1

SG3199 = compound: CC1=CN2[C@@H](C1)C=NC3=CC(=C(C=C3C2=O)OC)OCCCCCOC4=C(C=C5C(=C4)N=C[C@@H]6CC(=CN6C5=O)C)OC [SG3199]; settings: max 0.001 µM
In short: as §1

Crizotinib = compound: C[C@@H](Oc1cc(-c2cnn(C3CCNCC3)c2)cnc1N)c1c(Cl)ccc(F)c1Cl [Crizotinib]; settings: max 10 µM
In short: as §1

SN-38 = compound: CCc1c2c(nc3ccc(O)cc13)-c1cc3c(c(=O)n1C2)COC(=O)[C@]3(O)CC [SN-38]; settings: max 0.3 µM
In short: as §1

AZD8186 = compound: C[C@@H](Nc1cc(F)cc(F)c1)c1cc(C(=O)N(C)C)cc2c(=O)cc(N3CCOCC3)oc12 [AZD8186]; settings: max 3 µM
In short: as §1

Trametinib = compound: CC(=O)Nc1cccc(-n2c(=O)n(C3CC3)c(=O)c3c(Nc4ccc(I)cc4F)n(C)c(=O)c(C)c32)c1 [Trametinib]; settings: max 1 µM
In short: as §1

AZD2811 = compound: CCN(CCO)CCCOc1ccc2c(Nc3cc(CC(=O)Nc4cccc(F)c4)[nH]n3)ncnc2c1 [AZD2811]; settings: max 1 µM
In short: as §1

AZD5153 = compound: COc1nnc2ccc(N3CCC(c4ccc(OCCN5CCN(C)C(=O)[C@H]5C)cc4)CC3)nn12 [AZD5153]; settings: max 1 µM
In short: as §1

AZD1390 = compound: CC(C)n1c(=O)n(C)c2cnc3cc(F)c(-c4ccc(OCCCN5CCCCC5)nc4)cc3c21 [AZD1390]; settings: max 0.3 µM
In short: as §1

Savolitinib = compound: C[C@@H](c1ccc2nccn2c1)n1nnc2ncc(-c3cnn(C)c3)nc21 [Savolitinib]; settings: max 1 µM
In short: as §1

Row | Cell Line | IC50, cell viability 72 h (Doxorubicin) | IC50, cell viability 72 h (AZD7648) | IC50, cell viability 72 h (Capivasertib) | IC50, cell viability 72 h (AZD5991) | IC50, cell viability 72 h (AZD6738) | IC50, cell viability 72 h (Taselisib) | IC50, cell viability 72 h (Dasatinib) | IC50, cell viability 72 h (Gefitinib) | IC50, cell viability 72 h (AZD1775) | IC50, cell viability 72 h (Alisertib) | IC50, cell viability 72 h (Prexasertib) | IC50, cell viability 72 h (Palbociclib) | IC50, cell viability 72 h (Lapatinib) | IC50, cell viability 72 h (AZD0156) | IC50, cell viability 72 h (AZD4320) | IC50, cell viability 72 h (Selumetinib) | IC50, cell viability 72 h (Venetoclax) | IC50, cell viability 72 h (Olaparib) | IC50, cell viability 72 h (SG3199) | IC50, cell viability 72 h (Crizotinib) | IC50, cell viability 72 h (SN-38) | IC50, cell viability 72 h (AZD8186) | IC50, cell viability 72 h (Trametinib) | IC50, cell viability 72 h (AZD2811) | IC50, cell viability 72 h (AZD5153) | IC50, cell viability 72 h (AZD1390) | IC50, cell viability 72 h (Savolitinib)
1 | RPMI-8866 (Chronic Myelogenous Leukemia) | 125 nM | > 10 µM | > 10 µM | > 1000 nM | 0.926 µM | 2.45 µM | 1130 nM | > 10 µM | 349 nM | 0.153 µM | 10 nM | 2.71 µM | > 10 µM | > 3000 nM | 362 nM | > 10 µM | > 1000 nM | > 10 µM | > 1 nM | 5.73 µM | 4.48 nM | > 3000 nM | > 1000 nM | 449 nM | 47.6 nM | > 300 nM | > 1000 nM
2 | NCI-H1623 (Lung Adenocarcinoma) | > 1000 nM | > 10 µM | > 10 µM | 163 nM | 8.05 µM | 0.34 µM | > 2000 nM | 0.714 µM | > 3000 nM | > 10 µM | 89.5 nM | > 10 µM | 0.902 µM | > 3000 nM | > 1000 nM | > 10 µM | > 1000 nM | > 10 µM | > 1 nM | > 10 µM | 7.47 nM | > 3000 nM | 229 nM | > 1000 nM | > 1000 nM | > 300 nM | > 1000 nM
3 | RERF-LC-KJ (Lung Adenocarcinoma) | > 1000 nM | > 10 µM | > 10 µM | > 1000 nM | > 10 µM | 6.5 µM | > 2000 nM | > 10 µM | > 3000 nM | > 10 µM | > 1000 nM | > 10 µM | > 10 µM | > 3000 nM | > 1000 nM | > 10 µM | > 1000 nM | > 10 µM | > 1 nM | > 10 µM | 240 nM | > 3000 nM | > 1000 nM | > 1000 nM | 83.7 nM | > 300 nM | > 1000 nM
4 | HTC-C3 (Thyroid Gland Carcinoma) | > 1000 nM | > 10 µM | > 10 µM | > 1000 nM | 3.09 µM | > 10 µM | 128 nM | > 10 µM | 2300 nM | > 10 µM | 128 nM | > 10 µM | > 10 µM | > 3000 nM | > 1000 nM | 0.941 µM | > 1000 nM | > 10 µM | > 1 nM | > 10 µM | > 300 nM | > 3000 nM | 31.8 nM | > 1000 nM | 130 nM | > 300 nM | > 1000 nM
5 | Calu-6 (Non-Small Cell Lung Carcinoma) | > 1000 nM | > 10 µM | > 10 µM | > 1000 nM | 4.1 µM | > 10 µM | > 2000 nM | > 10 µM | 784 nM | 5.69 µM | 48.1 nM | > 10 µM | > 10 µM | > 3000 nM | > 1000 nM | 6.08 µM | > 1000 nM | > 10 µM | > 1 nM | > 10 µM | 93.4 nM | > 3000 nM | 72.4 nM | > 1000 nM | > 1000 nM | > 300 nM | > 1000 nM
6 | BALL-1 (B-Lymphoblastic Leukemia) | 123 nM | > 10 µM | 7.83 µM | > 1000 nM | 0.487 µM | > 10 µM | > 2000 nM | > 10 µM | 131 nM | 0.0849 µM | 5.12 nM | 1.15 µM | > 10 µM | > 3000 nM | 5.84 nM | > 10 µM | 4.7 nM | 6.29 µM | > 1 nM | 5.24 µM | 1.57 nM | > 3000 nM | > 1000 nM | 865 nM | 59 nM | > 300 nM | > 1000 nM
7 | NCI-H1155 (Non-Small Cell Lung Carcinoma) | 617 nM | > 10 µM | 8.34 µM | > 1000 nM | 5.97 µM | > 10 µM | > 2000 nM | > 10 µM | > 3000 nM | 9.88 µM | 49.1 nM | > 10 µM | > 10 µM | > 3000 nM | > 1000 nM | > 10 µM | > 1000 nM | > 10 µM | > 1 nM | > 10 µM | 4.68 nM | > 3000 nM | > 1000 nM | > 1000 nM | 541 nM | > 300 nM | > 1000 nM

Reference: the supplement of paper PMC11061612
